For series [1], the target named is T1, human A3 adenosine receptor (Homo sapiens, UniProt P0DMS8).
T1 construct: clone HS-21a contained the complete open reading frame corresponding to the human homolog of the rat A3 adenosine receptor; expressed in transfected cells; host or cells: CHO cells stably transfected with HS-21a cDNA
T1 sequence (P0DMS8 1-318): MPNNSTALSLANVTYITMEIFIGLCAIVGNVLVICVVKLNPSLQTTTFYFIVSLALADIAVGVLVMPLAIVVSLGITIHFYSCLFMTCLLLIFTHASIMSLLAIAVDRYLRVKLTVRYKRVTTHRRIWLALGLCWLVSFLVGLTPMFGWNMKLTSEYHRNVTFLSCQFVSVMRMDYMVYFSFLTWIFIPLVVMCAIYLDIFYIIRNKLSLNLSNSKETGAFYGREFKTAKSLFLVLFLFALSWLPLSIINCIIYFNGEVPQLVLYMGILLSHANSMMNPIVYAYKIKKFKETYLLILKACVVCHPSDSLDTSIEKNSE
Description: inhibition of forskolin-stimulated cAMP accumulation in stably transfected CHO cells expressing the human A3 receptor. Type of series: cell-based. The protocol: The human A3 adenosine receptor from a striatal cDNA library can be cloned using a probe derived from the homologous rat sequence.
cAMP Accumulation in Stable CHO Cell Lines
The changes in cAMP accumulation can alternatively be measured in stably transfected CHO cells expressing the human adenosine receptor subtypes. CHO cells are washed twice in phosphate buffered saline (PBS) and detached in 0.2% EDTA in PBS. The cells are pelleted at 800 rpm for 10 min and resuspended in KRH buffer (140 mM NaCl/5 mM KCl/2 mM CaCl2 /1.2 mM MgSO4 /1.2 mM KH2 PO4 /6 mM glucose/25 mM Hepes buffer, pH 7.4). The cells are washed once in KRH buffer and resuspended at 10^7 cells/mL. The cell suspension (100 μl) is mixed with 100 μl of KRH buffer containing 200 uM Ro 20-1724 and incubated at 37° C. for 10 minutes. Adenosine (10 uM) was added in 200 μl KRH buffer containing 200 uM Ro 20-1724 and incubated at 37° C. for 20 minutes. After the incubation, 400 μl of 0.5 mM NaOAc (pH 6.2) was added and the sample was boiled for 20 minutes. The supernatant was recovered by centrifugation for 15 minutes and stored at -70° C. cAMP levels were determined by radiommunoassay (RIANEN kit, DuPont/NEN) using the to acetylation protocol. The effect of antagonists on cAMP accumulation are measured by preincubation for 20 minutes before adding adenosine.
(In general: Changes in cAMP serve as a functional read-out for many G protein-coupled receptors.)

A further series deals with A3 adenosine receptor. Description: mast cell degranulation in an animal model. Type of series: in vivo.
Source text: (§1) The release of enzymes, bioactive amines and arachidonic acid metabolites following mast cell activation causes vasoconstriction, edema, leukocyte accumulation, and ultimately, tissue damage. Mast cell degranulation is a component of myocardian reperfusion injury, hypersensitivity reactions (asthma, allergic rhinitis, and urticaria), ischemic bowel disease, autoimmune inflammation, and atopic dermatitis. Selective A3 adenosine receptor antagonists can be used to treat or prevent these diseases and pathologic effects that result from mast cell degranulation.
as §1, with “of: myocardial” for “of myocardian”, “inflammations, 20” for “inflammation,”, “The present invention relates to the use of highly specific meta-substituted 8-phenylxanthine” for “Selective”, “antagonists” for “antagonists can be used”

Series [2] has as its system hamster cheek pouch anerioles. Description: vasoconstriction of hamster cheek pouch arterioles. From the text:
The constrictor response has classically been attributed to A1 adenosine receptor stimulation or interactions with the renin-angiotensin system. […] In the present invention, specific blockade of the A3 subtype of the adenosine receptor by a meta-substitutedphenylxanthine is effective to block the vasoconstrictive response induced through adenosine activation of this receptor subtype. The use of a meta-substituted phenylxanthine specific inhibitor of the A3 adenosine receptor subtype is effective to inhibit effects induced by adenosine mediated mast cell degranulation, and that disease states including but not limited to myocardial ischemia (Ito et al., Am. J. Physiol. 264 (Heart Circ. Physiol. 33):H I 346-H 1354, 1993), mastcell-dependent inflammation (Raud, J., Acta. Physiol. Scand. 135 (Suppl '578):I-58, 1989), brain arteriole diameter constriction (Rosenblum, W. I., Brain Res. 49:75-82, 1973), and the release of allergic mediators (Ramkumar et al., J. Biol. Chem. 268:16887-16890, 1993), are all amenable to prevention and treatment by contacting A3 receptor bearing mast cells with an amount of a meta-substituted phenylxanthine selective A3 inhibitor effective to prevent mast cell degranulation.

Another series relates to asthmatics. The following applies: not nonasthmatics; cited from earlier work.
Series [3] deals with mast cells isolated from rat peritoneum. Particulars: cited from earlier work.
Series [4] deals with T1, human A3 adenosine receptor. Description: 125I-ABA binding to membranes of stably transfected CHO cells expressing the human A3 adenosine receptor (HS-21a). The following applies: 1 mM nonradioactive I-ABA.
Series [5] relates to sheep A3 adenosine receptor. The following applies: cited from earlier work.
The target of series [6] is T1, human A3 adenosine receptor. Description: 125I-ABA binding to membranes of stably transfected CHO cells expressing the human A3 adenosine receptor (HS-21a). On the procedure:
Membranes were prepared from transiently transfected COS7 cells […] after transfection or from G418-selected stably transfected CHO or HEK 293 cells. Cells were harvested in 1 mM EDTA in phosphate buffered saline and centrifuged at 2000×g for 10 minutes. The cell pellet was washed once with phosphate buffered saline. The cell pellet was resuspended in 2 mL of 5 mM Tris, pH 7.6/5mM MgCl2. Membranes were prepared from the cells by freeze-thaw lysis in which the suspension was frozen in a dry ice/ethanol bath and thawed at 25° C. twice. The suspension was homogenized after adding an additional 2 mL of 5 mM Tris, pH 7.6/5 mM MgCl2, in a glass dounce homogenizer with 20 strokes. The membranes were pelleted at 40,000×g at 4° C. for 20 minutes. The membrane pellet was resuspended at a protein concentration of 1-2 mg/mL in binding assay buffer, 50 mM Tris, pH 7.6/10 mM MgCl2. Protein concentration was determined by the method of Bradford ((1976) Anal. Biochem. 72: 248-250). […] Saturation binding of [^125 I]-N^6 -aminiobenizyladenosine (125I-ABA) or [^125 I]-N^6 -2-(4-amino-3-iodophenyl)ethyladenosine (APNEA) was performed on membranes prepared from pSVLA3 transfected COS7 cells. Membranes (100 μg) were incubated in the presence of 0.2 U/mL adenosine deaminase with increasing concentrations of ^125 I-ABA in the range of 0.1-30 nM for 120 minutes at 25° C. in a total volume of 500 μl. The binding assay was terminated by rapid filtration and three washes with ice-cold 50 mM Tris, pH 7.6/10 mM MgCl2 on a Skatron cell harvester equipped with a receptor binding flitermat (SKATRON INSTRUMENTS, INC). Non-specific binding was determined on non-transfected cells. Bound radioactivity was measured by scintillation counting in Ready Safe Scintillation Cocktail (BECKMAN).
The 1.7 kb HS-21a cDNA (A3) was subcloned as a SalI-BamHl fragment into the expression vector pCMV5 (Mumby, S. M., Heukeroth, R. O., Gordon, J. I. and Gilman, A. G. (1990) Proc. Natl. Acad. Sci. USA 87, 728-732.) creating the vector pCMV5-A3. CHO or HEK 293 cells stably expressing the human HS-21 a cDNA were prepared by co-transfection of 15 μg pCMV5-A3 and 1 μg pWLneo (Stratagene) using the calcium phosphate method. Stable cell lines were also generated using EBV based mammalian expression vectors, pREP (INVITROGEN). Neomycin resistant colonies were selected in 1 mg/mL G418 (GIBCO). Stable colonies were screened for expression of HS-21a by ^125 I-ABA binding.
(§2) Membranes were prepared from stable CHO cell lines in 10 mM Hepes, pH 7.4 containing 0.1 mM benzamidine and 0.1 mM PMSF as described (Mahan, L. C. et al., (1991) Mol. Pharinacol. 40, 1-7). Pellets were resuspended in 5 mM Hepes, pH 7.4/5 mM MgCl2 /0.1 mM benzarnidine/0.1 mM PMSF at a protein concentration of 1-2 mg/mL and were incubated with adenosine deaminase (Boehringer Mannheim), 2 U/mL at 37° C. for 20 minutes. Saturation binding of ^125 I-ABA was carried out on 50 μg of membranes for 120 minutes at 25° C. in a total volume of 100 μl. The assay was terminated by rapid filtration and three washes with ice-cold binding buffer on a Skatron harvester equipped with a receptor binding filtermat (Skatron Instruments, Inc.). The specific activity of ^125 I-ABA, initially 2,200 Ci/mmol, was reduced to 100 Ci/mmol with nonradioactive I-ABA for saturation analysis. Nonspecific binding was measured in the presence of 1 uM I-ABA. The KD and Bmax values were calculated by the EBDA program (McPherson, G. A. (1983) Computer Programs for Biomedicine 17, 107-114). Competition binding of agonists and antagonists was determined with ^125 I-ABA (0.17-2.0 nM, 2000 Ci/mmol). […] Binding data were analyzed and competition curves were constructed by use of the nonlinear regression curve fitting program Graph PAD InPlot, Version 3.0 (Graph Pad Software, San Diego).

The subject of series [7] is non-transfected CHO cells. Description: 125I-ABA binding to membranes from non-transfected CHO cells. On the procedure: as §2, with “The assay was terminated by rapid filtration and three washes with ice-cold binding buffer on a Skatron harvester equipped with a receptor binding filtermat (Skatron Instruments, Inc.). The specific activity of ^125 I-ABA, initially 2,200 Ci/mmol, was reduced to 100 Ci/mmol with nonradioactive I-ABA for saturation analysis.” left out, “Diego). Ki values were calculated using the Cheng-Prusoff derivation (Cheng, Y. C. and Prusoff, H. R. (1973) Biochem. Pharmacol. 22, 3099-3108.).” for “Diego).”
The binding properties of the receptor encoded b HS-21a were evaluated on membranes prepared from CHO cells stably expressing the HS-21a cDNA. […]

Series [8] deals with myocardial ischemic injury. The following applies: inhibitor of mast cell degranulation; cited from earlier work.
Where [9] appears, read: 125I-ABA saturation binding, HS-21a stable CHO cell membranes.

Consider four compounds from patent US6303619A, “Meta-substituted acidic 8-phenylxanthine antagonists of A3 human adenosine receptors” (priority 1998, dated 2001).

Take `Nc1ncnc2c1ncn2[C@@H]1O[C@H](CO)[C@@H](O)[C@H]1O` [Adenosine, adenosine]: the “inhibition of forskolin-stimulated cAMP accumulation” value in [1] (stably transfected CHO cells, human A3) is on record as 30-40%. In the series with A3 adenosine receptor, the “induction of mast cell degranulation” value is listed as “induce mast cell degranulation”. Also, the vasoconstrictor action entry in series [2] is on record as “vasoconstrictor action”. For the same compound, the bronchoconstriction entry in the series with asthmatics is reported as “produces bronchoconstriction in asthmatics but not in nonasthmatics”. Further, the “release of granule contents” value in series [3] is “potentiates the release of granule contents”.
On to `Nc1ccc(CNc2ncnc3c2ncn3[C@@H]2O[C@H](CO)[C@@H](O)[C@H]2O)cc1I` [I-ABA], for which, in [1] (human A3, stably transfected CHO cells), the “agonist character (partial agonist)” value is “partial agonist”. The “prevention of specific binding of 125I-ABA” value in [4] is “prevented”. Besides, in series [5], the agonist affinity order result is “I-ABA>APNEA>NECA≥R-PIA>>CPA”.
One may read the Hill coefficient as the slope factor of the fitted curve. As for `Nc1ccc(CNc2ncnc3c2ncn3[C@@H]2O[C@H](CO)[C@@H](O)[C@H]2O)cc1[125I]` [^125 I-ABA, N^6-(4-amino-3^125 iodobenzyl)adenosine], in [6] (setting [9]), the Bmax stood at 258 fmol/mg protein and the Hill coefficient is on record as 0.99. In addition, in series [6] (HS-21a in stable CHO cell line), the “agonist activity inferred from effect of uncoupling reagents on binding” value is recorded as “exhibits some agonist activity”. Besides, the “specific binding to non-transfected cells” value in series [7] was “No specific binding”. In addition, the “binding / affinity of ligands in words” value in series [5] was “binds”.
`N#Cc1cc(NC(=O)C(=O)O)c(Cl)c(NC(=O)C(=O)O)c1` [lodoxamide]: in series [8], the “reduction of myocardial ischemic injury” value was “reduces myocardial ischemic injury”.
